Assay [1] addresses T1, PikCD50N-RhFRED (Streptomyces venezuelae, UniProt O87605, D50N). As to the kind of experiment: substrate binding assay, PikCD50N-RhFRED. On the procedure: The unnatural cyclic carbolide substrate desosaminyl cyclododecane was synthesized to mimic the structure of the natural substrate YC-17 using a recently developed synthetic strategy (Anzai Y, et al. Functional analysis of MycG and MycCI, cytochrome P450 enzymes involved in biosyntheis of mycinamicin macrolide antibiotics. Chem. Biol. 2008 15:950-959), which was subsequently employed as a general approach to derivatize diverse alcohols with desosamine (FIG. 6). The standard assay contains 5 μM PikCD50N—RhFRED, 0.5 mM substrate, 2.5 mM NADPH, 0.25 Unit of glucose-6-phosphate dehydrogenase, and 5 mM glucose-6-phosphate for NADPH regeneration in 100 μl of reaction buffer (50 mM NaH2PO4, pH 7.3, 1 mM EDTA, 0.2 mM dithioerythritol, and 10% glycerol). The reaction was carried out at 30° C. for 3 h and terminated by extraction using 3×200 μl of CHCl3. The resulting organic extract was dried by N2 and redissolved in 120 μl of methanol. The subsequent LC-MS analysis was performed on a ThermoFinnigan LTQ linear ion-trap instrument (Department of Pharmacology, University of Michigan) equipped with electrospray source and Surveyor HPLC system by using an XBridge™ C18 3.5 μm 150 mm reverse-phase HPLC column under following conditions: mobile phase (A=deionized water+0.1% formic acid, B=acetonitrile+0.1% formic acid), 20% B for 3 min, 20-100% B over 25 min, 100% B for 5 min, 100-20% B over 1 min, 20% B for 15 min; flow rate, 0.21 ml/min The substrate binding assays were performed following the previous report (Li et al., supra).
The decreased binding affinity of desosaminyl cyclododecane could result from […], an entropic penalty upon binding due to high conformational freedom of the saturated ring system, […]) lack of hydrophobic interactions between the functional groups on the macrolactone ring of […] and PikC active site residues, and/or […]) loss of some specific interactions with desosamine as observed in the co-crystal structure with PikC. […] Due to enhanced substrate conversion and ease of use in the absence of expensive exogenous redox partners, PikCD50N—RhFRED was employed to hydroxylate carbolide desosaminyl cyclododecane and all other substrates.

Assay [2] has as its system Staphylococcus aureus ATCC6538P. The assay is described as follows: antibacterial MIC, microtiter dilution. The following applies: Staphylococcus aureus, ATCC6538P, read-out: Minimal inhibitory concentration.
Assay [3] has as its system Bacillus subtillis DHS5333. As to the kind of experiment: antibacterial MIC, microtiter dilution. The following applies: Bacillus, DHS5333, read-out: Minimal inhibitory concentration.
Assay [4] has as its system Multidrug resistant S. aureus (MRSA). As to the kind of experiment: antibacterial MIC, microtiter dilution. The following applies: Staphylococcus aureus, MRSA, read-out: Minimal inhibitory concentration.
The next assay relates to S. aureus NorA. The assay is described as follows: antibacterial MIC, microtiter dilution. The following applies: Staphylococcus aureus, read-out: Minimal inhibitory concentration.
Assay [5] deals with T1, PikCD50N-RhFRED. It counts as biochemical. The following applies: for Number of products: Table 1.
The subject of a further assay is Deinococcus radiodurans. As to the kind of experiment: antibacterial MIC, microtiter dilution. The following applies: 60 h.
For a further assay, the system named is Acinetobacter baumannii. The assay is described as follows: antibacterial MIC, microtiter dilution. The following applies: read-out: Minimal inhibitory concentration.
Assay [6] deals with Kocuria rhizophila ATCC9341. As to the kind of experiment: antibacterial MIC, microtiter dilution. The following applies: Kocuria rhizophila, ATCC9341, read-out: Minimal inhibitory concentration.
Assay [7] concerns selected microbial targets. The assay is described as follows: antibacterial activity, summary in words. It is filed as cell-based. On the procedure: All measurements were performed in duplicate.
The bioactivity of 8 was compared with its synthetic hydroxylated products. Unexpectedly, upon installation of a hydroxyl group at either the C7/C8 or C6/C9 positions (the four authentic standards, each of which contains a pair of diastereomers), the products lost activity. […] Further analysis of these carbolides, and direct investigation of their presumed binding to ribosomal targets will provide important insights into the impact of PikC-mediated regioselective hydroxylation for development of new small molecules for treatment of microbial pathogens and other human diseases.

For another assay, the system named is Escherichia. coli TolC. As to the kind of experiment: antibacterial MIC, microtiter dilution. The following applies: Escherichia coli, read-out: Minimal inhibitory concentration, E. coli W3110 TolC disruption mutant; Mueller Hinten.
Where [8] appears, read: read-out: Minimal inhibitory concentration, Deinococcus radiodurans, Special media, 30° C.

From patent US20120190635A1, “SELECTIVE OXIDATION OF C-H BONDS OF MODIFIED SUBSTRATES BY P450 MONOOXYGENASE” (THE REGENTS OF THE UNIVERSITY OF MICHIGAN, priority 2009, published 2012) come the findings set out here.

What is called pKd is the negative decadic logarithm of the Kd, by convention in mol/L. A low value points to a large Kd.

pKd: −log10 of the molar value. ≈ marks a conversion by molar mass, not a printed value. Where two headings read alike, the source gives them in different places.

T1 sequence (O87605 other isoform, or with tags, fused parts or gaps D50N): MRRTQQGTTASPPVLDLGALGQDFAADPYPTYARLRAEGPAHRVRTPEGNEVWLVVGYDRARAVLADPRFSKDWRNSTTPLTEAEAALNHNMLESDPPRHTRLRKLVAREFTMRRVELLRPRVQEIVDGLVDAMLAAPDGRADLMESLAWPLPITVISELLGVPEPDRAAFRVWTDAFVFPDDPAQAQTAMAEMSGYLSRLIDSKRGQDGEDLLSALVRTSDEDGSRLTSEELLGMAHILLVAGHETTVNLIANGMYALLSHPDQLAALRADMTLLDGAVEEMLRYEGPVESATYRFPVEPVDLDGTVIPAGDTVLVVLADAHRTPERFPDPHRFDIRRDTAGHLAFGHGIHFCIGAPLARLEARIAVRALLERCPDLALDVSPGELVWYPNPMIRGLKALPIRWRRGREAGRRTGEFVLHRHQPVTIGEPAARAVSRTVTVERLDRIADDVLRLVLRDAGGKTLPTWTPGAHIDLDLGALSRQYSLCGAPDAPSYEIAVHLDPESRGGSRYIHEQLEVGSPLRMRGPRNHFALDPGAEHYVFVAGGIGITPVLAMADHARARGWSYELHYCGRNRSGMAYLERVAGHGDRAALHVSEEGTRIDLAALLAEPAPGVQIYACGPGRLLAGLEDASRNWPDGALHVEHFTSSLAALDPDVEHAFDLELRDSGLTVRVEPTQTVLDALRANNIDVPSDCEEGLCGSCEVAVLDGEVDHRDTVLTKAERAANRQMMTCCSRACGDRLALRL

`CC1CC(N(C)C)C(O)C(OC2CCCCCCCCCCCC2)O1` (stereo not shown) [Compound 8, 2-(Cyclotridecyloxy)-4-(dimethylamino)-6-methyltetrahydro-2H-pyran-3-ol] gave a pKd on PikCD50N-RhFRED [1] of 3.66. The MIC is 400 µM (≈ 142 µg/mL) in assay [2]; 200 µM (≈ 71.1 µg/mL) in assay [3]; 200 µM (≈ 71.1 µg/mL) in [4]; 200 µM (≈ 71.1 µg/mL) in the assay with S. aureus NorA; 100 µM (≈ 35.6 µg/mL) in the assay on Deinococcus radiodurans (setting [8]); greater than 400 µM with Acinetobacter baumannii. Also, the MIC (in assay [6]; in the assay on Escherichia. coli TolC) was 50 µM (≈ 17.8 µg/mL) each time. For the same compound, the “share of monohydroxylated products oxidized at sites remote from desosamine” value on PikCD50N-RhFRED [5] (C7 and C6/C8 for the 12-membered ring, C7/C8 or C6/C9 for the 13-membered ring) was determined as 94%. On PikCD50N-RhFRED [5] (PikCD50N-RhFRED), the Number of products is recorded as 6. Also, the “antibacterial activity in words” value in [7] was “displayed some inhibitory activities”.
`CC1CC(N(C)C)C(O)C(OC2CCCCCCCCCCCCC2)O1` (stereo not shown) [Compound 10, 2-(cyclotetradecyloxy)-4-(dimethylamino)-6-methyltetrahydro-2H-pyran-3-ol]: at PikCD50N-RhFRED [1], the pKd is 3.54. Besides, the MIC in assay [2] was greater than 400 µM; in assay [3] it was 200 µM (≈ 73.9 µg/mL); in assay [4], 400 µM (≈ 148 µg/mL); in the assay on S. aureus NorA, 400 µM (≈ 148 µg/mL); in the assay with Deinococcus radiodurans (setting [8]), 50 µM (≈ 18.5 µg/mL); with Acinetobacter baumannii, greater than 400 µM. For the same compound, the MIC (in assay [6]; in the assay on Escherichia. coli TolC) was 50 µM (≈ 18.5 µg/mL) in each case. For the same compound, on PikCD50N-RhFRED [5] (PikCD50N-RhFRED), the Number of products was found to be 6. Further, the “antibacterial activity in words” value in assay [7] is reported as “displayed some inhibitory activities”.
On to `CC1CC(N(C)C)C(O)C(OC2CCCCCCCCCCCCCC2)O1` (stereo not shown) [Compound 12, 2-(cyclopentadecyloxy)-4-(dimethylamino)-6-methyltetrahydro-2H-pyran-3-ol], for which, at PikCD50N-RhFRED [1], the pKd was 3.61. For the same compound, the MIC in assay [2] was 200 µM (≈ 76.7 µg/mL); in assay [3] it was 100 µM (≈ 38.4 µg/mL); in assay [4], 100 µM (≈ 38.4 µg/mL); in the assay with S. aureus NorA, 100 µM (≈ 38.4 µg/mL); in the assay on Deinococcus radiodurans (setting [8]), 50 µM (≈ 19.2 µg/mL); in the assay with Acinetobacter baumannii, greater than 400 µM. The MIC (in [6]; in the assay with Escherichia. coli TolC) was 50 µM (≈ 19.2 µg/mL) each time. Moreover, the Number of products at PikCD50N-RhFRED [5] (PikCD50N-RhFRED) is 9. Further, the “antibacterial activity in words” value in [7] is “displayed some inhibitory activities”.
For the compound `CCCCCCC#CCCOC1OC(C)CC(N(C)C)C1O` (stereo not shown) [Compound 17, 2-(Dec-3-ynyloxy)-4-(dimethylamino)-6-methyltetrahydro-2H-pyran-3-ol], the pKd on PikCD50N-RhFRED [1] was 2.54. Moreover, the MIC (in assay [2]; in assay [3]; in assay [4]; in the assay on S. aureus NorA; with Deinococcus radiodurans (setting [8]); with Acinetobacter baumannii) was greater than 400 µM each time. The MIC (in assay [6]; with Escherichia. coli TolC) was greater than 400 µM each time. The same compound registered a Number of products on PikCD50N-RhFRED [5] (PikCD50N-RhFRED) of 5.
`CC1CC(N(C)C)C(O)C(Oc2ccc3ccc4cccc5ccc2c3c45)O1` (stereo not shown) [Compound 19, 4-(Dimethylamino)-6-methyl-2-(pyren-1-yloxy)tetrahydro-2H-pyran-3-ol] gave a pKd at PikCD50N-RhFRED [1] of less than 2.30. Moreover, the MIC in [2] is 25 µM (≈ 9.39 µg/mL); in [3], 6.2 µM (≈ 2.33 µg/mL); in [4], 25 µM (≈ 9.39 µg/mL); in the assay on S. aureus NorA, 25 µM (≈ 9.39 µg/mL); in the assay on Deinococcus radiodurans (read-out: Minimal inhibitory concentration) it was 25 µM (≈ 9.39 µg/mL); in the assay on Acinetobacter baumannii, 100 µM (≈ 37.5 µg/mL). Further, the MIC (in assay [6]; with Escherichia. coli TolC) was 25 µM (≈ 9.39 µg/mL) in each case. For the same compound, at PikCD50N-RhFRED [5] (PikCD50N-RhFRED), the “number of oxidized products” value is listed as “single”. The compound also gave a Number of products at PikCD50N-RhFRED [5] (PikCD50N-RhFRED) of 1.
